{
  "source": "PubChem BioAssay (NCI)",
  "experiment_in_all_cases": "growth of human tumour cells (NCI), 48 h",
  "key": {"SNB-75 CNS": {"test_system": "SNB-75 CNS"}, "SF-268 CNS": {"test_system": "SF-268 CNS"}, "HCT-116 colon": {"test_system": "HCT-116 colon"}, "K-562 leukemia": {"test_system": "K-562 leukemia"}, "SW-620 colon": {"test_system": "SW-620 colon"}, "RXF 393 renal": {"test_system": "RXF 393 renal"}, "SK-OV-3 ovarian": {"test_system": "SK-OV-3 ovarian"}, "BT-549 breast": {"test_system": "BT-549 breast"}, "M14 melanoma": {"test_system": "M14 melanoma"}, "RPMI-8226 leukemia": {"test_system": "RPMI-8226 leukemia"}, "DU-145 prostate": {"test_system": "DU-145 prostate"}, "UACC-257 melanoma": {"test_system": "UACC-257 melanoma"}, "SF-539 CNS": {"test_system": "SF-539 CNS"}, "OVCAR-4 ovarian": {"test_system": "OVCAR-4 ovarian"}, "UACC-62 melanoma": {"test_system": "UACC-62 melanoma"}, "PC-3 prostate": {"test_system": "PC-3 prostate"}, "MDA-MB-435": {"test_system": "MDA-MB-435"}, "HS 578T breast": {"test_system": "HS 578T breast"}, "MCF7 breast": {"test_system": "MCF7 breast"}, "OVCAR-5 ovarian": {"test_system": "OVCAR-5 ovarian"}, "786-0 renal": {"test_system": "786-0 renal"}, "NCI-H460 lung": {"test_system": "NCI-H460 lung"}, "U251 CNS": {"test_system": "U251 CNS"}, "SNB-19 CNS": {"test_system": "SNB-19 CNS"}, "KM12 colon": {"test_system": "KM12 colon"}, "HOP-92 NSCLC": {"test_system": "HOP-92 NSCLC"}, "OVCAR-8 ovarian": {"test_system": "OVCAR-8 ovarian"}, "CCRF-CEM leukemia": {"test_system": "CCRF-CEM leukemia"}, "HT29 colon": {"test_system": "HT29 colon"}, "NCI/ADR-RES ovarian": {"test_system": "NCI/ADR-RES ovarian"}, "NCI-H522 lung": {"test_system": "NCI-H522 lung"}, "HCT-15 colon": {"test_system": "HCT-15 colon"}, "MALME-3M melanoma": {"test_system": "MALME-3M melanoma"}, "SN12C renal": {"test_system": "SN12C renal"}, "A549 NSCLC": {"test_system": "A549 NSCLC"}, "NCI-H23 lung": {"test_system": "NCI-H23 lung"}, "MDA-N": {"test_system": "MDA-N"}, "SF-295 CNS": {"test_system": "SF-295 CNS"}, "IGROV1 ovarian": {"test_system": "IGROV1 ovarian"}, "NCI-H226 lung": {"test_system": "NCI-H226 lung"}, "T-47D breast": {"test_system": "T-47D breast"}, "ACHN renal": {"test_system": "ACHN renal"}, "MDA-MB-231 breast": {"test_system": "MDA-MB-231 breast"}, "HCC-2998 colon": {"test_system": "HCC-2998 colon"}, "TK-10 renal": {"test_system": "TK-10 renal"}, "OVCAR-3 ovarian": {"test_system": "OVCAR-3 ovarian"}, "HL-60(TB) leukemia": {"test_system": "HL-60(TB) leukemia"}, "COLO 205 colon": {"test_system": "COLO 205 colon"}, "MOLT-4 leukemia": {"test_system": "MOLT-4 leukemia"}, "SK-MEL-28 melanoma": {"test_system": "SK-MEL-28 melanoma"}, "SR leukemia": {"test_system": "SR leukemia"}, "HOP-62 NSCLC": {"test_system": "HOP-62 NSCLC"}, "SK-MEL-5 melanoma": {"test_system": "SK-MEL-5 melanoma"}},
  "note": "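Dose response: 5 concentrations. Exposure: 48 h. Format: 96-well plates. Endpoint: linear interpolation; highest concentration if not reached. TGI marks complete inhibition of growth.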",
  "data": [
    {"smiles": "O=c1cc(-c2ccccc2)[nH]c2c(S)cccc12", "values": [
      {"measurement": "TGI", "setting": "SNB-75 CNS", "result": "> 100", "unit": "µM"},
      {"measurement": "TGI", "setting": "SF-268 CNS", "result": "> 100", "unit": "µM"},
      {"measurement": "TGI", "setting": "HCT-116 colon", "result": "> 100", "unit": "µM"},
      {"measurement": "TGI", "setting": "K-562 leukemia", "result": "> 100", "unit": "µM"},
      {"measurement": "TGI", "setting": "SW-620 colon", "result": "> 100", "unit": "µM"},
      {"measurement": "TGI", "setting": "RXF 393 renal", "result": "> 100", "unit": "µM"},
      {"measurement": "TGI", "setting": "SK-OV-3 ovarian", "result": "> 100", "unit": "µM"},
      {"measurement": "TGI", "setting": "BT-549 breast", "result": "> 100", "unit": "µM"},
      {"measurement": "TGI", "setting": "M14 melanoma", "result": "> 100", "unit": "µM"},
      {"measurement": "TGI", "setting": "RPMI-8226 leukemia", "result": "> 100", "unit": "µM"},
      {"measurement": "TGI", "setting": "DU-145 prostate", "result": "> 100", "unit": "µM"},
      {"measurement": "TGI", "setting": "UACC-257 melanoma", "result": "> 100", "unit": "µM"},
      {"measurement": "TGI", "setting": "SF-539 CNS", "result": "> 100", "unit": "µM"},
      {"measurement": "TGI", "setting": "OVCAR-4 ovarian", "result": "> 100", "unit": "µM"},
      {"measurement": "TGI", "setting": "UACC-62 melanoma", "result": "> 100", "unit": "µM"},
      {"measurement": "TGI", "setting": "PC-3 prostate", "result": "> 100", "unit": "µM"},
      {"measurement": "TGI", "setting": "MDA-MB-435", "result": "> 100", "unit": "µM"},
      {"measurement": "TGI", "setting": "HS 578T breast", "result": "> 100", "unit": "µM"},
      {"measurement": "TGI", "setting": "MCF7 breast", "result": "> 100", "unit": "µM"},
      {"measurement": "TGI", "setting": "OVCAR-5 ovarian", "result": "> 100", "unit": "µM"},
      {"measurement": "TGI", "setting": "786-0 renal", "result": "> 100", "unit": "µM"},
      {"measurement": "TGI", "setting": "NCI-H460 lung", "result": "> 100", "unit": "µM"},
      {"measurement": "TGI", "setting": "U251 CNS", "result": "> 100", "unit": "µM"},
      {"measurement": "TGI", "setting": "SNB-19 CNS", "result": "> 100", "unit": "µM"},
      {"measurement": "TGI", "setting": "KM12 colon", "result": "> 100", "unit": "µM"},
      {"measurement": "TGI", "setting": "HOP-92 NSCLC", "result": "> 100", "unit": "µM"},
      {"measurement": "TGI", "setting": "OVCAR-8 ovarian", "result": "> 100", "unit": "µM"},
      {"measurement": "TGI", "setting": "CCRF-CEM leukemia", "result": "> 100", "unit": "µM"},
      {"measurement": "TGI", "setting": "HT29 colon", "result": "> 100", "unit": "µM"},
      {"measurement": "TGI", "setting": "NCI/ADR-RES ovarian", "result": "> 100", "unit": "µM"},
      {"measurement": "TGI", "setting": "NCI-H522 lung", "result": "> 100", "unit": "µM"},
      {"measurement": "TGI", "setting": "HCT-15 colon", "result": "> 100", "unit": "µM"},
      {"measurement": "TGI", "setting": "MALME-3M melanoma", "result": "> 100", "unit": "µM"},
      {"measurement": "TGI", "setting": "SN12C renal", "result": "> 100", "unit": "µM"},
      {"measurement": "TGI", "setting": "A549 NSCLC", "result": "> 100", "unit": "µM"},
      {"measurement": "TGI", "setting": "NCI-H23 lung", "result": "> 100", "unit": "µM"},
      {"measurement": "TGI", "setting": "MDA-N", "result": "> 100", "unit": "µM"},
      {"measurement": "TGI", "setting": "SF-295 CNS", "result": "> 100", "unit": "µM"},
      {"measurement": "TGI", "setting": "IGROV1 ovarian", "result": "> 100", "unit": "µM"},
      {"measurement": "TGI", "setting": "NCI-H226 lung", "result": 99.7, "unit": "µM"},
      {"measurement": "TGI", "setting": "T-47D breast", "result": "> 100", "unit": "µM"},
      {"measurement": "TGI", "setting": "ACHN renal", "result": "> 100", "unit": "µM"},
      {"measurement": "TGI", "setting": "MDA-MB-231 breast", "result": "> 100", "unit": "µM"},
      {"measurement": "TGI", "setting": "HCC-2998 colon", "result": "> 100", "unit": "µM"},
      {"measurement": "TGI", "setting": "TK-10 renal", "result": "> 100", "unit": "µM"},
      {"measurement": "TGI", "setting": "OVCAR-3 ovarian", "result": "> 100", "unit": "µM"},
      {"measurement": "TGI", "setting": "HL-60(TB) leukemia", "result": "> 100", "unit": "µM"},
      {"measurement": "TGI", "setting": "COLO 205 colon", "result": "> 100", "unit": "µM"},
      {"measurement": "TGI", "setting": "MOLT-4 leukemia", "result": "> 100", "unit": "µM"},
      {"measurement": "TGI", "setting": "SK-MEL-28 melanoma", "result": "> 100", "unit": "µM"},
      {"measurement": "TGI", "setting": "SR leukemia", "result": "> 100", "unit": "µM"},
      {"measurement": "TGI", "setting": "HOP-62 NSCLC", "result": "> 100", "unit": "µM"},
      {"measurement": "TGI", "setting": "SK-MEL-5 melanoma", "result": "> 100", "unit": "µM"}
    ]}
  ]
}
